Measurements as given in US20040014772A1, “Compositions and methods for treating glomerular disorders” (priority 2000, published 2004).
Entries after “also recorded” stand apart in the source; their conditions may differ.

Key:
CYP2B1 = CYP2B1 content in glomeruli (immunohistochemistry, western blot); assay type: in vivo, rat; details: PAN-treated rats, 6 hours to day 7
From the text: The microsome fraction obtained was subjected to SDS-page electrophoresis in 1 mm slab gels. The separated forms were transferred from gel to a nitrocellulose sheet using a Mini Trans-blot electroblotting unit. The primary antibodies were monoclonal anti-HO-1 (OSA-111, StressGen, Victoria, BC, Canada) and monoclonal anti-CYP2B1 (PM25, Oxford Biomedical Research, Oxford, Mich., USA). Subsequent to primary and secondary antibody (peroxidase-labeled) treatment, the blots were visualized by enhanced chemiluminescence method. Kidney cortical sections were fixed in 10% buffered formalin for 6 hours and embedded in paraffin. After deparaffinization and antigen retrieval, the sections were immunolabeled and visualized according to an avidin-biotin complex (ABC) method. The primary antibody for detection of ferritin was polyclonal anti-Ferritin (L subunit) antibody (605022; Boehringer Mannheim Corp., Indianapolis, Ind., USA).

[1] = system: glomerular epithelial cells GEC; experiment: PAN induced catalytic iron release from GEC (bleomycin detectable iron); assay type: cell-based, rat; details: PAN 1.5 mM 1 h; preincubation CM 2 mM, PB 25 μM, RN 1 mM, PIP 0.2 mM, pyruvate 10 mM
Protocol: Iron capable of catalyzing free radical reactions was measured by bleomycin detectable iron assay as described by Gutteridge et al, 1981, Biochem. J. 199:263-265, Gutteridge et al, 1982, Biochem. J. 206:605-609, Baliga et al, 1993, Bioche. J. 291:901-905, Baliga et al, 1996, Kidney Int. 49:362-369, Baliga et al, Kidney Int. 53:394-401, Ueda et al, 1996, Kidney Int. 49:370-373, Baliga et al, 1998, Kidney Int. 54:1562-1569.
Confluent cell monolayer was washed three times with Chelex-treated HBSS to remove as much contaminating iron as possible. The GEC monolayer was then incubated in Chelex-treated HBSS with cytotoxic dose of PAN for a period time at 37° C. before substantial cell killing and after significant iron release occurs (1.5 mM, 60 min, based on a time course study on iron release induced by PAN, data not shown). The incubation medium was then collected for the measurement of catalytic iron using bleomycin detectable iron assay as mentioned above. To determine the effect of CYP inhibitors on the iron release, GEC monolayer was preincubated with CM (2 mM), RN (1 mM, as a control of CM) for 30 min or PB (25 uM) for 60 min in Chelex-treated HBSS at 37° C. After the incubation, the medium with CYP inhibitor was discarded and then the cell monolayers were washed twice with chelex-treated HBSS prior to the incubation of PAN.

[2] = Renal function (serum creatinine, BUN) in PAN-treated rats; assay type: in vivo, rat; details: PAN-treated rats with or without PIP or CM
Protocol: BUN and creatinine were measured by using assay kits from Sigma.

heme oxidase (HO-1) = experiment: HO-1 induction in kidney of PAN-treated rats (immunohistochemistry, western blot, RT-PCR); assay type: in vivo, rat
From the text: The microsome fraction obtained was subjected to SDS-page electrophoresis in 1 mm slab gels. The separated forms were transferred from gel to a nitrocellulose sheet using a Mini Trans-blot electroblotting unit. The primary antibodies were monoclonal anti-HO-1 (OSA-111, StressGen, Victoria, BC, Canada) and monoclonal anti-CYP2B1 (PM25, Oxford Biomedical Research, Oxford, Mich., USA). Subsequent to primary and secondary antibody (peroxidase-labeled) treatment, the blots were visualized by enhanced chemiluminescence method.
Kidney cortical sections were fixed in 10% buffered formalin for 6 hours and embedded in paraffin. After deparaffinization and antigen retrieval, the sections were immunolabeled and visualized according to an avidin-biotin complex (ABC) method. The primary antibody for detection of ferritin was polyclonal anti-Ferritin (L subunit) antibody (605022; Boehringer Mannheim Corp., Indianapolis, Ind., USA).
RNA was isolated from the kidney cortex using TRIzol Reagant (Gibco, BRL, Gaithersburg, Md., USA). Revers transcription of […] of total RNA was carried out using Moloney murine leukemia virus reverse transcriptase (Gibco, BRL). The resulting first-strand cDNA preparations were used as templates for PCR. HO-1 primer described by Paschen et al (Neurosci Lett, 1994, 180:5-8.) were purchased from Gibco, BRL. The sense primer was: %′-[…]-3′, and the antisense 5′-[…]-3′. […]

[3] = system: microsomal CYP isolated from GEC; experiment: H2O2 generation and catalytic iron release from microsomes isolated from GEC; assay type: biochemical, rat; parameters: H2O2 generation from GEC microsomal fraction: dose or concentration left out as unconfirmed
Protocol: The generation of H2O2 and catalytic iron from microsomal CYP isolated from GEC was also analyzed.

CN/C(=N/CCSCc1nc[nH]c1C)NC#N [CM, cimetidine]
CYP2B1 content in the glomeruli (CYP2B1): preserved | bleomycin detectable (catalytic) iron release from GEC [1]: drastically prevents the increase; also recorded: prevented the increase

CN(C)c1ncnc2c1ncn2[C@@H]1O[C@H](CO)[C@@H](N)[C@H]1O [PAN, puromycin aminonucleoside]
serum creatinine ([2]; control 0.72±0.2): 0.85 ± 0.2 mg/dL | BUN ([2]; control 21±3, P<0.05 vs control): 33 ± 4 mg/dL | CYP2B1 content in the glomeruli (CYP2B1): marked decrease | HO-1 induction in the glomeruli and tubules (heme oxidase (HO-1); PAN-treated rats): marked induction | HO-1 mRNA expression in the kidney (heme oxidase (HO-1); RT-PCR vs GAPDH, one hour to day 4 after PAN): significantly increase | bleomycin detectable (catalytic) iron release from GEC [1]: significant increase | H2O2 generation from GEC microsomal fraction ([3]; PAN): H2O2 generation in a time dependent fashion | catalytic iron release from GEC microsomal fraction ([3]; PAN 91.5 mM) as printed): marked increase
